# Data as given in patent US8273762B2, “Hexahydro-pyrrolo-isoquinoline compounds” (Janssen Pharmaceutica NV, priority 2005, dated 2012).
# Like-named read-outs stand apart in the source and are kept apart here.
# Key:
# H3 receptor = details: 60 min, average ± s.e.m.
# Source text: In this model, animals were introduced into a cage containing a fully-automated water drinking monitoring system. […] Results are shown as averages ±s.e.m. of n=8-13 animals.
# [1] = system: synaptic reuptake of 5-HT; assay: 5-HTP potentiation test (head twitches); type: in vivo; details: mice, 5 min interval, carbidopa 10 mg/kg + 5-HTP 40 mg/kg, average ± s.e.m.
# [2] = system: serotonin and dopamine levels in the cortex; assay: Microdialysis of serotonin and dopamine in cortex; type: in vivo; details: cortex of freely moving rats, 1 mg/kg subcutaneous, FIG. 1
# Source text: Microdialysis is used to measure the concentration of small biological molecules in the extracellular fluid of the brain (Parent, M. et al. Methods 2001, 23, 11-20). A small probe, containing a fine microdialysis membrane at its tip, is introduced into the brain of an animal. A buffered solution is infused through the catheter. Small molecules, such as monoamine neurotransmitters, diffuse through the pores in the microdialysis membrane and are captured in the solution. The samples are then analyzed by analytical techniques to quantitate the amount of neurotransmitter in the brain extracellular fluid. This technique has been used extensively to measure the effects of SERT inhibitors on levels of extracellular serotonin.
# Microdialysis was used to measure the levels of serotonin and dopamine in the brain of freely moving rats after subcutaneous injection of Example 8A. […] Results are represented as the average ±s.d. of n=2-4 rats.
# [3] = molecular target: T1, cloned human H3 receptor, stably expressed in SK-N-MC cells (Homo sapiens, UniProt Q9Y5N1); assay: H3 receptor binding (N-[3H]-α-methylhistamine displacement); details: SK-N-MC membranes, 0.8 nM N-[3H]-α-methylhistamine
# T1 construct: expressed in transfected cells
# T1 sequence (Q9Y5N1 whole entry): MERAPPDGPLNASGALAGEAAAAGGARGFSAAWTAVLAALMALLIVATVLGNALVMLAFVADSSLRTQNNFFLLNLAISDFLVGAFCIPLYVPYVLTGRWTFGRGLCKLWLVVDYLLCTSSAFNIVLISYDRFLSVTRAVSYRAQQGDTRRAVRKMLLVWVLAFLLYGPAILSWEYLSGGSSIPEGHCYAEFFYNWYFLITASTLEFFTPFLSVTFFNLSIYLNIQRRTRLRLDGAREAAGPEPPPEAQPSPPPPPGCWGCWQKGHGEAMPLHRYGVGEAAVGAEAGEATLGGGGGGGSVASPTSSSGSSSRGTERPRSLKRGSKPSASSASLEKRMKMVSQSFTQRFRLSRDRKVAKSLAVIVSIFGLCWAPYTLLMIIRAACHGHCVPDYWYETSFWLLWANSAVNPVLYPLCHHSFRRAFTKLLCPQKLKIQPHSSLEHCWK
# [4] = molecular target: T2, human H3 receptor (SK-N-MC cells) (Homo sapiens, UniProt Q9Y5N1); assay: Cyclic AMP accumulation (β-galactosidase reporter, Schild analysis vs histamine); type: cell-based; details: read-out: H3 pA2 (converted)
# T2 construct: expressed in transfected cells; host or cells: SK-N-MC sublines with CRE-beta-galactosidase reporter
# T2 sequence (Q9Y5N1 whole entry): as above
# Description: The reporter gene (β-galactosidase) is under the control of multiple cyclic AMP responsive elements. In 96-well plates, histamine was added directly to the cell media followed 5 min later by an addition of forskolin (5 μM final concentration). When appropriate, antagonists were added 10 min prior to agonist addition. After a 6-h incubation at 37° C., the media was aspirated and the cells washed with 200 μL of phosphate-buffered saline followed by a second aspiration. Cells were lysed with 25 μL 0.1× assay buffer (10 mM Na-phosphate, pH 8, 0.2 mM MgSO4, 0.01 mM MnCl2) and incubated at rt for 10 min. Cells were then incubated for 10 min with 100 μL of 1× assay buffer containing 0.5% Triton and 40 mM β-mercaptoethanol. Color was developed using 25 μL of 1 mg/mL substrate solution (chlorophenolred β-D galactopyranoside; Roche Molecular Biochemicals, Indianapolis, Ind.).
# [5] = molecular target: T3, human SERT (HEK293 membranes) (Homo sapiens, UniProt P31645); assay: Human SERT binding (3H-citalopram displacement)
# T3 construct: purchased Perkin-Elmer; host or cells: HEK293 membranes
# T3 sequence (P31645 whole entry): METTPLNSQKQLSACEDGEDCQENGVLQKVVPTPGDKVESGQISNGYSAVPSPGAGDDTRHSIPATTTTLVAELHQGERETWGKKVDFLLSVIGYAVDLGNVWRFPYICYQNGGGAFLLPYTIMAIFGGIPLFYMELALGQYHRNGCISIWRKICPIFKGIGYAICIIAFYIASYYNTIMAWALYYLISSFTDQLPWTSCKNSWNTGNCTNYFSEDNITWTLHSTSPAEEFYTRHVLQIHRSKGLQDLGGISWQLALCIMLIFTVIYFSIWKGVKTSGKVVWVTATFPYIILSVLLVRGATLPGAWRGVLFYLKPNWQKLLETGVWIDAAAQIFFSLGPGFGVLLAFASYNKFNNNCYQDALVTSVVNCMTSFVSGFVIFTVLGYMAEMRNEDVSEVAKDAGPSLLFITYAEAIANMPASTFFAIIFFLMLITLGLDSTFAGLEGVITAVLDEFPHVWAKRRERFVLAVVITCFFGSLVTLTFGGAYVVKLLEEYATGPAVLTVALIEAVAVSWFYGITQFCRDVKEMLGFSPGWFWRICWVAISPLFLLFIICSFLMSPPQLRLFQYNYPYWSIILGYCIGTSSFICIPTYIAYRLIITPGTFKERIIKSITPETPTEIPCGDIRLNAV
# Description: Nonspecific binding was determined in the presence of 10 μM fluoxetine for the SERT. The membranes were washed and the radioactivity was counted as above.
# Rat SERT = molecular target: T4, Rat SERT (Rattus norvegicus, UniProt P31652); assay: Rat brain SERT binding ([3H]-Citalopram displacement); details: rat brain membranes, 0.6 nM [3H]-Citalopram; read-out: Rat SERT Ki
# T4 construct: A rat brain without cerebellum (Zivic Laboratories, Inc.—Pittsburgh, Pa.) was homogenized; tissue Zivic Laboratories, Inc; host or cells: rat brain without cerebellum, membranes
# T4 sequence (P31652 whole entry): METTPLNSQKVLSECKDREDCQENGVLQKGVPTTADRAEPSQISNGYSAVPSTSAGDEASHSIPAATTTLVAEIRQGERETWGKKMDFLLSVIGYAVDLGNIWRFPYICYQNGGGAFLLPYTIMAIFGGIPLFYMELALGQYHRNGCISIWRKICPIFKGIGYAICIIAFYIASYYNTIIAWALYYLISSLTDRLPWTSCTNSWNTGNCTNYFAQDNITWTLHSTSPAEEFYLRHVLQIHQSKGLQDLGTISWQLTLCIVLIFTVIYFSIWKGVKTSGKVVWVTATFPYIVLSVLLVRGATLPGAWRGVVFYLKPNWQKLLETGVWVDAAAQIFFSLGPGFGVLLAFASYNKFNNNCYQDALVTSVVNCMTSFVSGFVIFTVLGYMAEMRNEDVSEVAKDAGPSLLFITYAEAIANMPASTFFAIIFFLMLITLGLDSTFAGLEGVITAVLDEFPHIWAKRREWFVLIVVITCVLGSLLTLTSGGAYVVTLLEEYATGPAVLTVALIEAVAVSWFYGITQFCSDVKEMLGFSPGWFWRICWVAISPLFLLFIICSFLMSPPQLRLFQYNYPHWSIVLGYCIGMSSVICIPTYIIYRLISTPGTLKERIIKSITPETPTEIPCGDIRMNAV
Compound,Water Consumed (H3 receptor; Example 8A (1 mg/kg) i.p. + Imetit (1 mg/kg) after 24 h) [mL],Water Consumed (H3 receptor; Example 8A (3 mg/kg) i.p. + Imetit (1 mg/kg) after 24 h) [mL],"Water Consumed (H3 receptor; Example 8A (10 mg/kg) i.p. + Imetit (1 mg/kg) after 24 h, p = 0.022 compared to imetit-treated animals)","head twitch frequency ([1]; 3 mg/kg, Group 1 (1 h))","head twitch frequency ([1]; 3 mg/kg, Group 2 (24 h))","head twitch frequency ([1]; 10 mg/kg, Group 1 (1 h))","head twitch frequency ([1]; 10 mg/kg, Group 2 (24 h))",dopamine (DA) levels by microdialysis [2],serotonin (5-HT) levels by microdialysis [2],Ki [3] [nM],Kb [4] [nM],Ki [5] [nM],Ki (Rat SERT) [nM]
"COc1ccc([C@H]2CN3CCC[C@H]3c3cc(OCCCN4CCCCC4)ccc32)cc1 (relative stereo) [Example 8A, Cis-6-(4-Methoxy-phenyl)-9-(3-piperidin-1-yl-propoxy)-1,2,3,5,6,10b-hexahydro-pyrrolo[2,1-a]isoquinoline]",1.99 ± 0.68,1.65 ± 0.51,*0.25 ± 0.15 mL,6.0 ± 1.2 (3),24.0 ± 2.1 (4),2.0 ± 0.6 (3),41.3 ± 5.2 (3),"slow, persistent increase","slow, persistent increase",–,–,–,–
FC(F)(F)c1cccc([C@H]2CN3CCC[C@H]3c3cc(OCCCN4CCCCC4)ccc32)c1 (relative stereo) [Example 67],–,–,–,–,–,–,–,–,–,2,0.501,9,22
